Among the test systems are UO-31; KM12; COLO 205; SNB-19; M14; IGROV-1; NCI-H23; MOLT-4; NCI-H522; SF-295; NCI-H226; LOX IMVI; CAKI-1; OVCAR-4; 786-0; SK-MEL-5; HCC 2998; CCRF-CEM; MDA-N.
Common to all, as to assay: growth of human tumour cells (NCI), 48 h

Structures are written as SMILES.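 Step 1: Grow cells in 96-well plates. Step 2: Expose to compound for 48 hours at 5 concentrations. Step 3: Interpolate endpoints linearly; if unreached, use highest concentration. Abbreviation: GI50, concentration required for 50% inhibition of growth.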 Calls of active or inactive are those of the source. Cut-off read from the data, not from the text of the source: active = GI50 up to about 1.1 µM and inactive = higher. Where only a bound is given, the exact number is not on record here.

For the compound `O=C1c2ccccc2C(=O)c2c1nc1ccccc1c2-c1cncc(-c2c3c(nc4ccccc24)C(=O)c2ccccc2C3=O)c1`, the GI50 in the assay on UO-31 was 1.55 µM (inactive); in the assay with KM12, 3.61 µM (inactive); with COLO 205, 2.85 µM (inactive); with SNB-19, 23.8 µM (inactive); with M14 it was 3.18 µM (inactive); in the assay with IGROV-1, 0.0596 µM (active). In addition, the GI50 in the assay with NCI-H23 is 1.18 µM (inactive); in the assay on MOLT-4 it was 0.418 µM (active); in the assay on NCI-H522, 1.95 µM (inactive); with SF-295 it was 8.32 µM (inactive); in the assay on NCI-H226, 5.87 µM (inactive); in the assay on LOX IMVI, 1.67 µM (inactive). Further, the GI50 in the assay with CAKI-1 was 9.84 µM (inactive); in the assay with OVCAR-4, 30.9 µM (inactive); in the assay with 786-0 it was 9.82 µM (inactive); in the assay on SK-MEL-5, 1.29 µM (inactive); in the assay with HCC 2998, 18.5 µM (inactive); with CCRF-CEM, 0.562 µM (active).

Turning to `CCCCCCCCCCCCc1ccsc1-c1ccc(-c2ccc(-c3sc(-c4cc(CCCCCCCCCCCC)c(-c5ccc(-c6ccc(-c7sccc7CCCCCCCCCCCC)s6)s5)s4)cc3CCCCCCCCCCCC)s2)s1`, the GI50 in the assay on UO-31, with KM12, in the assay on COLO 205, in the assay with SNB-19, with M14 and in the assay with IGROV-1 was > 100 µM (inactive) throughout. Besides, the GI50 in the assay on NCI-H23, in the assay on MOLT-4, with NCI-H522, in the assay with SF-295, in the assay with NCI-H226 and in the assay on CAKI-1 was > 100 µM (inactive) each time. Further, the GI50 is > 100 µM (inactive) in the assay on OVCAR-4; > 100 µM (inactive) with 786-0; > 100 µM (inactive) in the assay on SK-MEL-5; > 100 µM (inactive) with HCC 2998; 38.3 µM (inactive) with CCRF-CEM.

As for `C[C@@H](CO)OCOCc1ccccc1`, the GI50 with UO-31, in the assay with KM12, in the assay on COLO 205, in the assay with SNB-19, with M14 and with IGROV-1 was > 100 µM (inactive) each time. For the same compound, the GI50 in the assay with NCI-H23, in the assay on MOLT-4, in the assay with NCI-H522, in the assay on SF-295, in the assay on LOX IMVI and with CAKI-1 was > 100 µM (inactive) throughout. Besides, the GI50 in the assay on OVCAR-4, with 786-0, with SK-MEL-5, with HCC 2998 and in the assay on CCRF-CEM was > 100 µM (inactive) in each case.

With `COc1ccc(C(C)NNC(=O)c2ccncc2)cc1OC` (stereo not given), the GI50 in the assay with UO-31, with KM12, in the assay on COLO 205, with MDA-N, in the assay on SNB-19 and in the assay with M14 was > 100 µM (inactive) throughout. Besides, the GI50 with IGROV-1, with NCI-H23, with MOLT-4, in the assay with SF-295, with NCI-H226 and in the assay on LOX IMVI was > 100 µM (inactive) each time. Further, the GI50 in the assay on CAKI-1, with OVCAR-4, in the assay with 786-0, in the assay on SK-MEL-5, with HCC 2998 and in the assay with CCRF-CEM was > 100 µM (inactive) in each case.

Regarding `CCC(=N\NC(N)=S)/C(C)=N/O`, the GI50 in the assay on UO-31 is 62.1 µM (inactive); with KM12, > 100 µM (inactive); in the assay with COLO 205 it was > 100 µM (inactive); in the assay on MDA-N, > 100 µM (inactive); with SNB-19, > 100 µM (inactive); in the assay with M14, > 100 µM (inactive). For the same compound, the GI50 in the assay on IGROV-1, with NCI-H23, with SF-295, with NCI-H226, in the assay with LOX IMVI and in the assay with CAKI-1 was > 100 µM (inactive) throughout. For the same compound, the GI50 with OVCAR-4, in the assay with 786-0, with SK-MEL-5 and in the assay with HCC 2998 was > 100 µM (inactive) throughout.

In the case of `CC(=O)N1C(=O)C(=O)c2cc(Cl)ccc21`, the GI50 with UO-31, in the assay with KM12, with COLO 205, with SNB-19, with M14 and in the assay on IGROV-1 was > 100 µM (inactive) each time. For the same compound, the GI50 in the assay with NCI-H23, with MOLT-4, in the assay with SF-295, in the assay on NCI-H226, in the assay on LOX IMVI and in the assay on OVCAR-4 was > 100 µM (inactive) each time. The GI50 in the assay on 786-0 is > 100 µM (inactive); with SK-MEL-5, > 100 µM (inactive); in the assay with HCC 2998 it was > 100 µM (inactive); with CCRF-CEM, > 10 µM (inactive).

Take `C[Si]12OCCCN(CCO1)CCO2`: the GI50 with UO-31, in the assay on KM12, in the assay with COLO 205, in the assay with SNB-19, in the assay on IGROV-1 and in the assay on NCI-H23 was > 100 µM (inactive) in each case. In addition, the GI50 with MOLT-4, in the assay with NCI-H522, with SF-295, in the assay with CAKI-1, in the assay on 786-0 and in the assay on SK-MEL-5 was > 100 µM (inactive) each time. Also, the GI50 with HCC 2998 and in the assay on CCRF-CEM was > 100 µM (inactive) each time.

For `COc1c2c(cc3c1C(=O)c1c(O)cccc1C3=O)CC(O)CC2` (stereo not given), the GI50 in the assay on UO-31 is 56.9 µM (inactive); with KM12, > 100 µM (inactive); with COLO 205 it was > 100 µM (inactive); in the assay on MDA-N, > 100 µM (inactive); with SNB-19, 19.7 µM (inactive); in the assay with M14, 32 µM (inactive). The GI50 with IGROV-1 was 85.5 µM (inactive); in the assay with NCI-H23, 20.1 µM (inactive); with MOLT-4 it was > 100 µM (inactive); in the assay on SF-295, 19.2 µM (inactive); in the assay on NCI-H226 it was 54.5 µM (inactive); in the assay with LOX IMVI, > 100 µM (inactive). The GI50 with CAKI-1 is > 100 µM (inactive); with OVCAR-4, > 100 µM (inactive); with 786-0, 25.6 µM (inactive); in the assay with SK-MEL-5 it was > 100 µM (inactive); in the assay on HCC 2998, > 100 µM (inactive); in the assay with CCRF-CEM, > 100 µM (inactive).

As to `Cn1cnc([N+](=O)[O-])c1Sc1nnnn1-c1ccccc1`, the GI50 in the assay with UO-31 was 13.7 µM (inactive); with KM12 it was 17.4 µM (inactive); in the assay with COLO 205 it was 8.09 µM (inactive); in the assay with SNB-19 it was 33.2 µM (inactive); in the assay on M14, 10.9 µM (inactive); in the assay on IGROV-1, 16.2 µM (inactive). For the same compound, the GI50 in the assay with NCI-H23 is 19.4 µM (inactive); in the assay with MOLT-4 it was 2.17 µM (inactive); with NCI-H522 it was 2.34 µM (inactive); in the assay with SF-295, 17.8 µM (inactive); in the assay with NCI-H226, 17.3 µM (inactive); with LOX IMVI it was 5.65 µM (inactive). Moreover, the GI50 with CAKI-1 was 15.9 µM (inactive); in the assay with OVCAR-4, 10.4 µM (inactive); with 786-0, 16.7 µM (inactive); in the assay with SK-MEL-5 it was 16.1 µM (inactive); with HCC 2998 it was 18.5 µM (inactive); in the assay with CCRF-CEM, 2.39 µM (inactive).

With `S=C(S)NCNC(=S)S`, the GI50 with UO-31, in the assay with KM12, with COLO 205, in the assay with MDA-N, in the assay with SNB-19 and in the assay on M14 was > 100 µM (inactive) each time. In addition, the GI50 in the assay on IGROV-1, with NCI-H23, in the assay on MOLT-4, in the assay with SF-295, in the assay with LOX IMVI and with CAKI-1 was > 100 µM (inactive) each time. In addition, the GI50 in the assay on OVCAR-4, in the assay on 786-0, with SK-MEL-5, with HCC 2998 and in the assay on CCRF-CEM was > 100 µM (inactive) in each case.

As to `C[C@@H]1CC[C@]2(C(=O)O)CC[C@]3(C)C(=CC[C@@H]4[C@@]5(C)CC[C@H](O)C(C)(C)[C@@H]5CC[C@]43C)[C@@H]2[C@]1(C)O` [POMOLIC ACID], the GI50 in the assay on UO-31 was 11.3 µM (inactive); with KM12, 12.4 µM (inactive); in the assay with COLO 205 it was 16.4 µM (inactive); in the assay with SNB-19, 15.7 µM (inactive); in the assay on M14 it was 2.98 µM (inactive); with IGROV-1 it was 16.5 µM (inactive). The GI50 in the assay with NCI-H23 was 18.7 µM (inactive); in the assay with MOLT-4, 4.86 µM (inactive); in the assay with NCI-H522 it was 13.9 µM (inactive); with SF-295 it was 3.22 µM (inactive); in the assay on LOX IMVI, 15.7 µM (inactive); in the assay with CAKI-1, 14 µM (inactive). The GI50 in the assay on OVCAR-4 is 16.8 µM (inactive); in the assay on 786-0, 5.38 µM (inactive); in the assay on HCC 2998 it was 15 µM (inactive); in the assay on CCRF-CEM, 10.3 µM (inactive).

For the origin of these results see ChEMBL document CHEMBL1201862, “PubChem BioAssay data set” (2004).
